{"source": "patent US20210045385A1", "about": "“PYRIDAZINONE-SUBSTITUTED KETOXIMES AS HERBICIDES” (FMC Corporation, priority 2018, published 2021)", "type_in_all_cases": "in vivo", "key": {"[1]": {"test_system": "ragweed (common ragweed, Ambrosia elatior)", "assay": "Test A preemergence, visual plant response rating", "in_short": "(§1)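 Ratings use a 0–100 visual scale (100 = complete control) against untreated controls, scored about 10 days after greenhouse treatment. Test chemicals were formulated in surfactant-containing non-phytotoxic solvent and applied either as soil spray after planting (preemergence) or onto one- to two-leaf, 2–10 cm plants (postemergence).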"}, "[2]": {"test_system": "barnyardgrass (Echinochloa crus-galli)", "assay": "Test A preemergence, visual plant response rating", "in_short": "as §1"}, "[3]": {"test_system": "Italian ryegrass (Lolium multiflorum)", "assay": "Test A preemergence, visual plant response rating", "in_short": "as §1"}, "[4]": {"test_system": "pigweed (Amaranthus retroflexus)", "assay": "Test A preemergence, visual plant response rating", "in_short": "as §1"}, "kochia (Kochia scoparia) [5]": {"test_system": "kochia (Kochia scoparia)", "assay": "Test A preemergence, visual plant response rating", "in_short": "as §1"}, "[6]": {"test_system": "foxtail, giant (giant foxtail, Setaria faberii)", "assay": "Test A preemergence, visual plant response rating", "in_short": "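Preemergence: seeds in loam/sand blend given directed soil spray of compound in non-phytotoxic solvent with surfactant. Postemergence: plants 2–10 cm, one- to two-leaf stage, sprayed with same formulation. Visual injury rated vs untreated controls after ~10 days in greenhouse, 0 (no effect) to 100 (complete control).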"}, "rice (Oryza sativa)": {"test_system": "rice (Oryza sativa)", "assay": "Test B flooded paddy test, visual plant response rating", "details": "250 g ai/ha, Flood, applied to paddy water, 2-leaf stage, evaluated after 13 to 15 days", "in_short": "(§2)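 Rice, umbrella sedge, ducksalad and barnyardgrass grown to 2-leaf stage; pots flooded 3 cm above soil and compound applied directly to paddy water, depth maintained.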"}, "[7]": {"test_system": "barnyardgrass (Echinochloa crus-galli)", "assay": "Test B flooded paddy test, visual plant response rating", "details": "250 g ai/ha, Flood, applied to paddy water, 2-leaf stage, evaluated after 13 to 15 days", "in_short": "as §2"}, "[8]": {"test_system": "sedge, umbrella (small-flower umbrella sedge, Cyperus difformis)", "assay": "Test B flooded paddy test, visual plant response rating", "details": "250 g ai/ha, Flood, applied to paddy water, 2-leaf stage, evaluated after 13 to 15 days", "in_short": "as §2"}, "[9]": {"test_system": "ducksalad (Heteranhera limosa)", "assay": "Test B flooded paddy test, visual plant response rating", "details": "250 g ai/ha, Flood, applied to paddy water, 2-leaf stage, evaluated after 13 to 15 days", "in_short": "as §2"}, "[10]": {"test_system": "wheat (Triticum aestivum)", "assay": "Test A postemergence, visual plant response rating", "details": "Postemergence", "in_short": "as §1"}, "[11]": {"test_system": "ragweed (common ragweed, Ambrosia elatior)", "assay": "Test A postemergence, visual plant response rating", "in_short": "as §1"}, "[12]": {"test_system": "galium (catchweed bedstraw, Galium aparine)", "assay": "Test A postemergence, visual plant response rating", "in_short": "as §1"}, "[13]": {"test_system": "barnyardgrass (Echinochloa crus-galli)", "assay": "Test A postemergence, visual plant response rating", "in_short": "as §1"}, "corn (Zea mays)": {"test_system": "corn (Zea mays)", "assay": "Test A postemergence, visual plant response rating", "in_short": "as §1"}, "[14]": {"test_system": "Italian ryegrass (Lolium multiflorum)", "assay": "Test A postemergence, visual plant response rating", "in_short": "as §1"}, "[15]": {"test_system": "blackgrass (Alopecurus myosuroides)", "assay": "Test A postemergence, visual plant response rating", "in_short": "as §1"}, "[16]": {"test_system": "pigweed (Amaranthus retroflexus)", "assay": "Test A postemergence, visual plant response rating", "in_short": "as §1"}, "kochia (Kochia scoparia) [17]": {"test_system": "kochia (Kochia scoparia)", "assay": "Test A postemergence, visual plant response rating", "in_short": "as §1"}, "[18]": {"test_system": "foxtail, giant (giant foxtail, Setaria faberii)", "assay": "Test A postemergence, visual plant response rating", "in_short": "as §1"}, "[19]": {"details": "125 g ai/ha, preemergence, 0 to 100 scale, 0 no effect, 100 complete control"}, "[20]": {"details": "500 g ai/ha Preemergence, approx. 10 days"}, "[21]": {"details": "500 g ai/ha, postemergence, 0 is no effect, 100 is complete control"}, "[22]": {"details": "Postemergence, 125 g ai/ha, 0 to 100 scale (0 no effect, 100 complete control)"}}}
{"smiles": "CCO/N=C(/c1c(O)c(Cl)nn(C)c1=O)c1cccc2ccccc12", "note": "[Compound 147]", "values": [{"measurement": "Ragweed plant response rating", "setting": "[1]; [19]", "result": 90}, {"measurement": "Ragweed plant response rating (0 to 100 scale)", "setting": "[1]; [20]", "result": 100}, {"measurement": "Barnyardgrass plant response rating", "setting": "[2]; [19]", "result": 50}, {"measurement": "Barnyardgrass plant response rating (0 to 100 scale)", "setting": "[2]; [20]", "result": 60}, {"measurement": "Ryegrass, Italian plant response rating", "setting": "[3]; [19]", "result": 0}, {"measurement": "Ryegrass, Italian plant response rating (0 to 100 scale)", "setting": "[3]; [20]", "result": 0}, {"measurement": "Pigweed plant response rating", "setting": "[4]; [19]", "result": 60}, {"measurement": "Pigweed plant response rating (0 to 100 scale)", "setting": "[4]; [20]", "result": 100}, {"measurement": "Kochia plant response rating", "setting": "kochia (Kochia scoparia) [5]; [19]", "result": 100}, {"measurement": "Kochia plant response rating (0 to 100 scale)", "setting": "kochia (Kochia scoparia) [5]; [20]", "result": 100}, {"measurement": "Foxtail, Giant plant response rating", "setting": "[6]; [19]", "result": 50}, {"measurement": "Foxtail, Giant plant response rating (0 to 100 scale)", "setting": "[6]; [20]", "result": 80}, {"measurement": "Plant response rating, Rice (0 to 100 scale, 0 is no effect, 100 is complete control)", "setting": "rice (Oryza sativa)", "result": 0}, {"measurement": "Plant response rating, Barnyardgrass (0 to 100 scale, 0 is no effect, 100 is complete control)", "setting": "[7]", "result": 0}, {"measurement": "Plant response rating, Sedge, Umbrella (0 to 100 scale, 0 is no effect, 100 is complete control)", "setting": "[8]", "result": 0}, {"measurement": "Plant response rating, Ducksalad (0 to 100 scale, 0 is no effect, 100 is complete control)", "setting": "[9]", "result": 0}, {"measurement": "Wheat plant response rating", "setting": "[10]; 500 g ai/ha, 0 to 100 scale (0 no effect, 100 complete control)", "result": 0}, {"measurement": "Wheat plant response rating (0 to 100 scale)", "setting": "[10]; approx. 10 days", "result": 0}, {"measurement": "Ragweed plant response rating (0 to 100 scale)", "setting": "[11]; [21]", "result": 90}, {"measurement": "Ragweed plant response rating", "setting": "[11]; [22]", "result": 100}, {"measurement": "Galium plant response rating (0 to 100 scale)", "setting": "[12]; [21]", "result": 90}, {"measurement": "Galium plant response rating", "setting": "[12]; [22]", "result": 90}, {"measurement": "Barnyardgrass plant response rating (0 to 100 scale)", "setting": "[13]; [21]", "result": 60}, {"measurement": "Barnyardgrass plant response rating", "setting": "[13]; [22]", "result": 20}, {"measurement": "Corn plant response rating (0 to 100 scale)", "setting": "corn (Zea mays); [21]", "result": 30}, {"measurement": "Corn plant response rating", "setting": "corn (Zea mays); [22]", "result": 0}, {"measurement": "Ryegrass, Italian plant response rating (0 to 100 scale)", "setting": "[14]; [21]", "result": 0}, {"measurement": "Ryegrass, Italian plant response rating (0 to 100 scale)", "setting": "[14]; Postemergence, rate not given, approx. 10 days", "result": 0}, {"measurement": "Blackgrass plant response rating (0 to 100 scale)", "setting": "[15]; [21]", "result": 60}, {"measurement": "Blackgrass plant response rating", "setting": "[15]; [22]", "result": 30}, {"measurement": "Pigweed plant response rating (0 to 100 scale)", "setting": "[16]; [21]", "result": 90}, {"measurement": "Pigweed plant response rating", "setting": "[16]; [22]", "result": 40}, {"measurement": "Kochia plant response rating (0 to 100 scale)", "setting": "kochia (Kochia scoparia) [17]; [21]", "result": 90}, {"measurement": "Kochia plant response rating", "setting": "kochia (Kochia scoparia) [17]; [22]", "result": 40}, {"measurement": "Foxtail, Giant plant response rating (0 to 100 scale)", "setting": "[18]; [21]", "result": 70}, {"measurement": "Foxtail, Giant plant response rating", "setting": "[18]; [22]", "result": 30}]}
